Here are results for eight molecules from patent publication US10570116B2, “1,4-dicarbonyl-piperidyl derivatives” (Merck Patent GmbH, priority 2015, dated 2020).

One experiment has as its system DLD-1-cancer cells. Conditions: Huang et al., 2009; cited from earlier work.
A further experiment concerns the target PARP-1 (Homo sapiens (Human), UniProt P09874). In words: Biochemical activity testing of PARP-1: autoparsylation assay (HTRF). The settings on record: His-tagged Parp-1, autoparsylation HTRF. In general terms: TR-FRET usually uses a lanthanide donor and a delayed reading to cut background.
The target in a further experiment is TNKS1 (Homo sapiens (Human), UniProt O95271). The experiment in a line: biochemical. Conditions: GST-tagged Tnks-1 (1023-1327 aa); read-out: IC50 [M] TNKS1 ELISA. Type of experiment: biochemical. For orientation: In an ELISA, binding on a coated surface is turned into a signal by an enzyme label.
In another experiment the test system is Tankyrases. The experiment in a line: Measurement of cellular inhibition of Tankyrase (Axin2 level, Luminex based assay, DLD1 cells). Type of experiment: cell-based. The settings on record: increase of Axin2 level, 24 hours, read-out: EC50 [M] TNKS cellular assay.
A further experiment addresses TNKS2 (Homo sapiens (Human), UniProt Q9H2K2). The experiment in a line: biochemical. Type of experiment: biochemical. Conditions: GST-tagged Tnks-2 (873-1166 aa); read-out: IC50 [M] TNKS2 ELISA.
A further experiment deals with Tankyrase. Conditions: prior art value; read-out: cellular assay: EC50; cited from earlier work.

SMILES strings stand for the structures. Bounds are passed on as bounds.

PARP-1, sequence (P09874 whole entry, the tested form may be a part): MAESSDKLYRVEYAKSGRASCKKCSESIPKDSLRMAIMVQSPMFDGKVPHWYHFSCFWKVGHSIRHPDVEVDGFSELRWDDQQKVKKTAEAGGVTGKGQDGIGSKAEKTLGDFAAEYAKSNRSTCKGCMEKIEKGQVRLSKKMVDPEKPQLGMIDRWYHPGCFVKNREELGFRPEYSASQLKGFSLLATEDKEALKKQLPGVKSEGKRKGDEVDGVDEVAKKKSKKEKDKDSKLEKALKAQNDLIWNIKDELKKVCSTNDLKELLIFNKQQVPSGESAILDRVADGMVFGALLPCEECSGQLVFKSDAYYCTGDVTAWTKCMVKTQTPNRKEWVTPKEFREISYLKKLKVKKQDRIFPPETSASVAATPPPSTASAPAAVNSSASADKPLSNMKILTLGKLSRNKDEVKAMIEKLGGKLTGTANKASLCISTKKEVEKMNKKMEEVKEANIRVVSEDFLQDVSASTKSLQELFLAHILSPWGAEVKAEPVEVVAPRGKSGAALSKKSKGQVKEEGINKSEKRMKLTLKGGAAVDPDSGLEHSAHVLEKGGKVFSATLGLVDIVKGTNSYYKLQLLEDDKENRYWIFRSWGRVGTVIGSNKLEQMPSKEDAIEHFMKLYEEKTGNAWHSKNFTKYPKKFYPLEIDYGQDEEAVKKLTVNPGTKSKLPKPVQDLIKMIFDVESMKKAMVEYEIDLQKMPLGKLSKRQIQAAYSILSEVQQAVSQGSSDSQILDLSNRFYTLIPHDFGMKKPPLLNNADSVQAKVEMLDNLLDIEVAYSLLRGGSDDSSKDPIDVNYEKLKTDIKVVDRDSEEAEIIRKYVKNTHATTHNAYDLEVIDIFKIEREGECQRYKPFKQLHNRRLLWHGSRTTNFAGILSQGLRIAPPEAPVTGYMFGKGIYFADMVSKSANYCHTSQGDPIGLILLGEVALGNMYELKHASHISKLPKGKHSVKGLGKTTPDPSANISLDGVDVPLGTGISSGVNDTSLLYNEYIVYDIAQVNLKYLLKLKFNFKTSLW

For `Oc1nc(-c2ccc(C(F)(F)F)cc2)nc2c1CSCC2` [XAV939], the “growth of DLD-1-cancer cells” value with DLD-1-cancer cells is given as “inhibits growth”.

`Cn1cc(C(=O)C2CCN(C(=O)CC(C)(C)Cc3nc4c(ccn4C)c(=O)[nH]3)CC2)cn1` [Compound C17, 2-{2,2-Dimethyl-4-[4-(1-methyl-1H-pyrazole-4-carbonyl)-piperidin-1-yl]-4-oxo-butyl}-7-methyl-3,7-dihydro-pyrrolo[2,3-d]pyrimidin-4-one]: the half-maximal inhibitory concentration (IC50) at PARP-1 was above 30000 nM; on TNKS1 it was 4.7e-10 M; at TNKS2, 3.3e-10 M. In addition, the EC50 in the experiment on Tankyrases was 6.9e-09 M.

`COc1ccc(C(=O)C2CCN(CC(=O)N(Cc3nc4c(c(=O)[nH]3)COCC4)CC3CC3)CC2)cc1` [benzoylpiperidine derivative]: the EC50 at Tankyrase is 35 nM.

`CCn1cc(C(=O)C2CCN(C(=O)CC(C)(C)Cc3nc4c(ccn4C)c(=O)[nH]3)CC2)cn1` [Compound C18, 2-{4-[4-(1-Ethyl-1H-pyrazole-4-carbonyl)-piperidin-1-yl]-2,2-dimethyl-4-oxo-butyl}-7-methyl-3,7-dihydro-pyrrolo[2,3-d]pyrimidin-4-one]: the half-inhibitory concentration (IC50) against PARP-1 was above 30000 nM; on TNKS1, 5.8e-10 M; at TNKS2, 3.6e-10 M. The EC50 in the experiment with Tankyrases worked out at 2.8e-09 M.

On to `COc1ncc(C(=O)C2CCN(C(=O)CC(C)(C)Cc3nc4c(cnn4C)c(=O)[nH]3)CC2)cc1C` [Compound C22, 6-{4-[4-(6-Methoxy-5-methyl-pyridine-3-carbonyl)-piperidin-1-yl]-2,2-dimethyl-4-oxo-butyl}-1-methyl-1,5-dihydro-pyrazolo[3,4-d]pyrimidin-4-one], for which the IC50 at PARP-1 was above 30000 nM; at TNKS1, 2.2e-09 M; at TNKS2, 1.8e-09 M. Also, the EC50 with Tankyrases amounted to 7.9e-09 M.

In the case of `COc1ccc(C(=O)C2CCN(C(=O)CC(C)(C)Cc3nc4c(cnn4C)c(=O)[nH]3)CC2)cn1` [Compound C21, 6-{4-[4-(6-Methoxy-pyridine-3-carbonyl)-piperidin-1-yl]-2,2-dimethyl-4-oxo-butyl}-1-methyl-1,5-dihydro-pyrazolo[3,4-d]pyrimidin-4-one], the IC50 against PARP-1 was above 30000 nM; on TNKS1 it was 3.6e-09 M; at TNKS2, 2.1e-09 M. For the same molecule, the EC50 with Tankyrases was 1.6e-08 M.

On to `Cn1cc(C(=O)C2CCN(C(=O)CC(C)(C)Cc3nc4c(cnn4C)c(=O)[nH]3)CC2)cn1` [Compound C20, 6-{2,2-Dimethyl-4-[4-(1-methyl-1H-pyrazole-4-carbonyl)-piperidin-1-yl]-4-oxo-butyl}-1-methyl-1,5-dihydro-pyrazolo[3,4-d]pyrimidin-4-one], for which the IC50 against PARP-1 was above 30000 nM; on TNKS1, 9.2e-10 M; on TNKS2, 7.3e-10 M. In addition, the EC50 in the experiment with Tankyrases is 1.9e-08 M.

As for `COC(=O)c1ccc(C(=O)C2CCN(C(=O)CC(C)(C)Cc3nc4c(C)cccc4c(=O)[nH]3)CC2)cc1C` [Compound C40, 4-{1-[3,3-Dimethyl-4-(8-methyl-4-oxo-3,4-dihydro-quinazolin-2-yl)-butyryl]-piperidine-4-carbonyl}-2-methyl-benzoic Acid Methyl Ester], the IC50 at TNKS1 came to 1.5e-09 M; at TNKS2 it was 4.7e-09 M. The EC50 in the experiment on Tankyrases was determined as 2.9e-09 M.

As usually defined, the IC50 is the concentration that inhibits the measured activity by half. The term EC50 denotes the midpoint of the concentration-response curve.
